How the values were obtained:
Experiment in all cases: relative viability (nuclei count vs DMSO), 5 days (fraction); higher = more cells survive
[1] = system: NCI-H322M
Procedure, shortened: (§1)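 Medians of duplicate plates are given as relative viability. That measure is the nuclei count in treated wells divided by the count in vehicle wells. Counts were taken on 4× images of lung cancer cell lines in 1536-well plates, 5 days after pin-tool dosing the day after seeding with one drug alone or a fixed anchor-drug dose plus five library-drug doses (not always all listed) in √10 steps.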

[2] = system: HCC-44
Procedure, shortened: as §1

[3] = system: NCI-H1792
Procedure, shortened: as §1

[4] = system: NCI-H2347
Procedure, shortened: as §1

[5] = system: RERF-LC-KJ
Procedure, shortened: as §1

[6] = system: NCI-H1944
Procedure, shortened: as §1

[7] = system: SK-LU-1
Procedure, shortened: as §1

[8] = system: NCI-H1755
Procedure, shortened: as §1

[9] = system: NCI-H1793
Procedure, shortened: as §1

[10] = system: ChaGo-K-1
Procedure, shortened: as §1

[11] = system: NCI-H1666
Procedure, shortened: as §1

[12] = system: NCI-H1395
Procedure, shortened: as §1

[13] = system: NCI-H520
Procedure, shortened: as §1

[14] = system: CAL-12T
Procedure, shortened: as §1

[15] = system: HCC-827
Procedure, shortened: as §1

[16] = system: NCI-H3122
Procedure, shortened: as §1

[17] = system: LU99A
Procedure, shortened: as §1

[18] = system: NCI-H2126
Procedure, shortened: as §1

[19] = system: LXF-289
Procedure, shortened: as §1

Question: Which results are given for `Cc1cn(-c2cc(NC(=O)c3ccc(C)c(Nc4nccc(-c5cccnc5)n4)c3)cc(C(F)(F)F)c2)cn1` [Nilotinib] + CC1(C)CCC(c2ccc(Cl)cc2)=C(CN2CCN(c3ccc(C(=O)NS(=O)(=O)c4ccc(N[C@H](CCN5CCOCC5)CSc5ccccc5)c(S(=O)(=O)C(F)(F)F)c4)cc3)CC2)C1 [Navitoclax] (partner 0.5 µM)?
Answer: relative viability ([1]; first compound 0.001 µM): 1.09; relative viability ([1]; first compound 0.003162 µM): 1.51; relative viability ([1]; first compound 0.03162 µM): 0.954; relative viability ([1]; first compound 0.1 µM): 1.16; relative viability ([2]; first compound 0.001 µM): 0.845; relative viability ([2]; first compound 0.003162 µM): 1.22; relative viability ([2]; first compound 0.01 µM): 1.39; relative viability ([2]; first compound 0.03162 µM): 0.844; relative viability ([2]; first compound 0.1 µM): 0.999; relative viability ([3]; first compound 0.001 µM): 0.523; relative viability ([3]; first compound 0.01 µM): 0.907; relative viability ([3]; first compound 0.1 µM): 0.794; relative viability ([4]; first compound 0.001 µM): 0.81; relative viability ([4]; first compound 0.003162 µM): 0.959; relative viability ([4]; first compound 0.01 µM): 1.05; relative viability ([4]; first compound 0.03162 µM): 0.662; relative viability ([4]; first compound 0.1 µM): 0.695; relative viability ([5]; first compound 0.001 µM): 1.07; relative viability ([5]; first compound 0.003162 µM): 0.949; relative viability ([5]; first compound 0.01 µM): 1.24; relative viability ([5]; first compound 0.03162 µM): 1.15; relative viability ([5]; first compound 0.1 µM): 1.08; relative viability ([6]; first compound 0.001 µM): 1.03; relative viability ([6]; first compound 0.003162 µM): 1.13; relative viability ([6]; first compound 0.01 µM): 1.22; relative viability ([6]; first compound 0.03162 µM): 1.12; relative viability ([6]; first compound 0.1 µM): 0.987; relative viability ([7]; first compound 0.001 µM): 0.703; relative viability ([7]; first compound 0.003162 µM): 1.17; relative viability ([7]; first compound 0.01 µM): 1.14; relative viability ([7]; first compound 0.03162 µM): 0.582; relative viability ([7]; first compound 0.1 µM): 0.827; relative viability ([8]; first compound 0.001 µM): 0.969; relative viability ([8]; first compound 0.003162 µM): 1.1; relative viability ([8]; first compound 0.01 µM): 1.08; relative viability ([8]; first compound 0.03162 µM): 0.83; relative viability ([8]; first compound 0.1 µM): 0.93; relative viability ([9]; first compound 0.003162 µM): 0.452; relative viability ([9]; first compound 0.01 µM): 0.587; relative viability ([9]; first compound 0.03162 µM): 0.385; relative viability ([9]; first compound 0.1 µM): 0.275; relative viability ([10]; first compound 0.001 µM): 1.47; relative viability ([10]; first compound 0.003162 µM): 0.924; relative viability ([10]; first compound 0.01 µM): 1.06; relative viability ([10]; first compound 0.03162 µM): 0.754; relative viability ([10]; first compound 0.1 µM): 0.787; relative viability ([11]; first compound 0.001 µM): 0.994; relative viability ([11]; first compound 0.003162 µM): 1.24; relative viability ([11]; first compound 0.01 µM): 0.98; relative viability ([11]; first compound 0.03162 µM): 0.895; relative viability ([11]; first compound 0.1 µM): 0.759; relative viability ([12]; first compound 0.001 µM): 1.03; relative viability ([12]; first compound 0.003162 µM): 0.815; relative viability ([12]; first compound 0.01 µM): 1.1; relative viability ([12]; first compound 0.03162 µM): 1.11; relative viability ([12]; first compound 0.1 µM): 1.05; relative viability ([13]; first compound 0.001 µM): 1.13; relative viability ([13]; first compound 0.01 µM): 1.11; relative viability ([13]; first compound 0.03162 µM): 0.96; relative viability ([13]; first compound 0.1 µM): 1.15; relative viability ([14]; first compound 0.003162 µM): 1.17; relative viability ([14]; first compound 0.01 µM): 1.17; relative viability ([14]; first compound 0.03162 µM): 1.02; relative viability ([14]; first compound 0.1 µM): 0.956; relative viability ([15]; first compound 0.001 µM): 1.02; relative viability ([15]; first compound 0.003162 µM): 1.08; relative viability ([15]; first compound 0.01 µM): 1.1; relative viability ([15]; first compound 0.1 µM): 1; relative viability ([16]; first compound 0.001 µM): 1.09; relative viability ([16]; first compound 0.003162 µM): 1.12; relative viability ([16]; first compound 0.01 µM): 1.09; relative viability ([16]; first compound 0.1 µM): 0.831; relative viability ([17]; first compound 0.001 µM): 0.761; relative viability ([17]; first compound 0.003162 µM): 0.904; relative viability ([17]; first compound 0.01 µM): 0.985; relative viability ([17]; first compound 0.03162 µM): 0.76; relative viability ([17]; first compound 0.1 µM): 0.479; relative viability ([18]; first compound 0.001 µM): 0.861; relative viability ([18]; first compound 0.003162 µM): 0.891; relative viability ([18]; first compound 0.01 µM): 0.89; relative viability ([18]; first compound 0.03162 µM): 0.846; relative viability ([18]; first compound 0.1 µM): 0.82; relative viability ([19]; first compound 0.001 µM): 0.904; relative viability ([19]; first compound 0.003162 µM): 1.09; relative viability ([19]; first compound 0.01 µM): 1.05; relative viability ([19]; first compound 0.03162 µM): 0.855; relative viability ([19]; first compound 0.1 µM): 0.878

Source: the supplement of paper PMC10307832
